Test results published in US9243068B2, “Combination of SEMA-4D inhibitors and immunomodulators to inhibit tumors and metastases” (Vaccinex, Inc., priority 2013, dated 2016).

System: Colon26 tumor cells
Assay: Colon26 tumor growth, combination with cyclophosphamide (Example 8)
Format: in vivo
Conditions: Colon26 in Balb/c mice; anti-SEMA4D 50 mg/kg IP weekly; cyclophosphamide 50 mg/kg IP days 12 and 20
Protocol: Experimental Design. 5×10^5 Colon26 tumor cells were implanted subcutaneously into the flank of female Balb/c mice. […] There were 20 mice per group. Tumors were measured with calipers 3×/week starting 5 days post implant. Animals were sacrificed when tumor volume reached 1000 mm^3.
Tumor growth was measured by calipers and measurements were used to calculate tumor volume using the formula (w^2×I)/2, where w=width, smaller measurement, and l=length, in mm, of the tumor.
Regression is the lack of palpable tumor, defined by a tumor measuring <50 mm^3 for at least two consecutive measurements.

Structure (SMILES): O=P1(N(CCCl)CCCl)NCCCO1 (stereo not shown) [cyclophosphamide]
- Tumor Growth Delay (TGD): 96%
